# Patent US20260262643A1, “HERBICIDAL BENZOXAZINES” (FMC CORPORATION, priority 2022, published 2026)
# Where two headings read alike, the source gives them in different places.
# What was measured:
# [1] = system: corn; assay: Test A preemergence; format: in vivo, Zea mays; settings: Zea mays, pre-emergence, 240 h; for Corn plant response rating (crop injury, 0 = no effect, 100 = complete kill) at 125 g/ha: 125 g ai/ha; for Corn plant response rating (crop injury, 0 = no effect, 100 = complete kill) at 500 g/ha: 500 g ai/ha
# Method in brief: (§1)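 Weeds and crops in loam–sand blend were sprayed preemergence onto soil or postemergence at 2–10 cm (one- to two-leaf stage). Test chemicals were in a non-phytotoxic solvent with surfactant. After 10 days in the greenhouse, injury was rated visually against untreated controls on a 0 (no effect) to 100 (complete control) scale.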
# [2] = system: foxtail, giant; assay: Test A preemergence; format: in vivo, Setaria faberi; settings: Setaria faberi, pre-emergence, 240 h, read-out: Plant response rating, Foxtail, Giant; for pest or weed control at 125 g/ha: 125 g ai/ha; for pest or weed control at 500 g/ha: 500 g ai/ha
# Method in brief: as §1
# [3] = system: oat, wild; assay: Test A preemergence; format: in vivo, Avena fatua; settings: Avena fatua, pre-emergence, 240 h, read-out: Plant response rating, Oat, Wild; for pest or weed control at 125 g/ha: 125 g ai/ha; for pest or weed control at 500 g/ha: 500 g ai/ha
# Method in brief: as §1
# [4] = system: pigweed, palmer; assay: Test A preemergence; format: in vivo, Amaranthus palmeri; settings: Amaranthus palmeri, pre-emergence, 240 h, read-out: Plant response rating, Pigweed, Palmer; for pest or weed control at 125 g/ha: 125 g ai/ha; for pest or weed control at 500 g/ha: 500 g ai/ha
# Method in brief: as §1
# [5] = system: ragweed; assay: Test A preemergence; format: in vivo, Ambrosia artemisiifolia; settings: Ambrosia artemisiifolia, pre-emergence, 240 h, read-out: Plant response rating, Ragweed; for pest or weed control at 125 g/ha: 125 g ai/ha; for pest or weed control at 500 g/ha: 500 g ai/ha
# Method in brief: as §1
# [6] = system: soybean; assay: Test A preemergence; format: in vivo, Glycine max; settings: Glycine max, pre-emergence, 240 h, read-out: Plant response rating, Soybean; for plant injury at 125 g/ha: 125 g ai/ha; for plant injury at 500 g/ha: 500 g ai/ha
# Method in brief: as §1
# [7] = system: blackgrass; assay: Test A postemergence; format: in vivo, Alopecurus myosuroides; settings: Alopecurus myosuroides, post-emergence, 240 h; for pest or weed control at 125 g/ha: 125 g ai/ha; for pest or weed control at 500 g/ha: 500 g ai/ha
# Method in brief: as §1
# [8] = system: kochia; assay: Test A postemergence; format: in vivo, Bassia scoparia; settings: Bassia scoparia, post-emergence, 240 h; for pest or weed control at 125 g/ha: 125 g ai/ha; for pest or weed control at 500 g/ha: 500 g ai/ha
# Method in brief: as §1
# [9] = system: oat, wild; assay: Test A postemergence; format: in vivo, Avena fatua; settings: Avena fatua, post-emergence, 240 h; for pest or weed control at 125 g/ha: 125 g ai/ha; for pest or weed control at 500 g/ha: 500 g ai/ha
# Method in brief: as §1
# [10] = system: pigweed, palmer; assay: Test A postemergence; format: in vivo, Amaranthus palmeri; settings: Amaranthus palmeri, post-emergence, 240 h; for pest or weed control at 125 g/ha: 125 g ai/ha; for pest or weed control at 500 g/ha: 500 g ai/ha
# Method in brief: as §1
# [11] = system: wheat; assay: Test A postemergence; format: in vivo, Triticum aestivum; settings: Triticum aestivum, post-emergence, 240 h; for plant injury at 125 g/ha: 125 g ai/ha; for plant injury at 500 g/ha: 500 g ai/ha
# Method in brief: as §1
# [12] = system: horseweed; assay: Test A postemergence; format: in vivo, Erigeron canadensis; settings: Erigeron canadensis, post-emergence, 240 h; for pest or weed control at 125 g/ha: 125 g ai/ha; for pest or weed control at 500 g/ha: 500 g ai/ha
# Method in brief: as §1
# [13] = system: barnyardgrass; assay: Test B flooded paddy test; format: in vivo, Echinochloa crus-galli; settings: Echinochloa crus-galli, 312 h, 250 g ai/ha, Flood, 13 days, 0 to 100 scale (0 no effect, 100 complete control); read-out: Plant response rating, Barnyardgrass
# Method in brief: (§2)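 Application into standing water (3 cm above soil) at the two-leaf stage; flood depth held constant. Evaluation: day 13, visual comparison with controls, 0 = no injury, 100 = complete control.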
# [14] = system: rice; assay: Test B flooded paddy test; format: in vivo, Oryza sativa; settings: Oryza sativa, 312 h; 250 g ai/ha, Flood, 13 days, 0 to 100 scale (0 no effect, 100 complete control); read-out: Plant response rating, Rice
# Method in brief: as §2
# [15] = visual injury after 10 days, 0 to 100 scale, 0 is no effect, 100 is complete control
# [16] = 0 to 100 scale (0 no effect, 100 complete control), 10 days
# [17] = postemergence, 10 days, visual injury, 0 to 100 scale (0 no effect, 100 complete control), read-out: Plant response rating, Blackgrass
# [18] = postemergence, 10 days, visual injury, 0 to 100 scale (0 no effect, 100 complete control), read-out: Plant response rating, Kochia
# [19] = postemergence, 10 days, visual injury, 0 to 100 scale (0 no effect, 100 complete control), read-out: Plant response rating, Oat, Wild
# [20] = postemergence, 10 days, visual injury, 0 to 100 scale (0 no effect, 100 complete control), read-out: Plant response rating, Pigweed, Palmer
# [21] = postemergence, 10 days, visual injury, 0 to 100 scale (0 no effect, 100 complete control), read-out: Plant response rating, Wheat
# [22] = postemergence, 10 days, visual injury, 0 to 100 scale (0 no effect, 100 complete control), read-out: Plant response rating, Horseweed
compound,measurement,setting,value
"COc1ccc(-n2cncn2)cc1C(=O)N1C[C@H](C)Oc2c(C)cccc21 [Compound 63, [(2S)-2,3-Dihydro-2,8-dimethyl-4H-1,4-benzoxazin-4-yl][2-methoxy-5-(1H-1,2,4-triazol-1-yl)phenyl]methanone]","Corn plant response rating (crop injury, 0 = no effect, 100 = complete kill) at 125 g/ha",[1]; [15],60%
same,"Corn plant response rating (crop injury, 0 = no effect, 100 = complete kill) at 500 g/ha",[1]; [16],80%
same,pest or weed control at 125 g/ha,[2]; [15],100%
same,pest or weed control at 500 g/ha,[2]; [16],100%
same,pest or weed control at 125 g/ha,[3]; [15],60%
same,pest or weed control at 500 g/ha,[3]; [16],90%
same,pest or weed control at 125 g/ha,[4]; [15],40%
same,pest or weed control at 500 g/ha,[4]; [16],90%
same,pest or weed control at 125 g/ha,[5]; [15],0%
same,pest or weed control at 500 g/ha,[5]; [16],40%
same,plant injury at 125 g/ha,[6]; [15],100%
same,plant injury at 500 g/ha,[6]; [16],100%
same,pest or weed control at 125 g/ha,[7]; [17],70%
same,pest or weed control at 500 g/ha,"[7]; Postemergence, 0 to 100 scale, read-out: Plant response rating, Blackgrass",90%
same,pest or weed control at 125 g/ha,[8]; [18],10%
same,pest or weed control at 500 g/ha,"[8]; Postemergence, 0 to 100 scale, read-out: Plant response rating, Kochia",20%
same,pest or weed control at 125 g/ha,[9]; [19],70%
same,pest or weed control at 500 g/ha,"[9]; Postemergence, 0 to 100 scale, read-out: Plant response rating, Oat, Wild",80%
same,pest or weed control at 125 g/ha,[10]; [20],30%
same,pest or weed control at 500 g/ha,"[10]; Postemergence, 0 to 100 scale, read-out: Plant response rating, Pigweed, Palmer",40%
same,plant injury at 125 g/ha,[11]; [21],70%
same,plant injury at 500 g/ha,"[11]; Postemergence, 0 to 100 scale, read-out: Plant response rating, Wheat",90%
same,pest or weed control at 125 g/ha,[12]; [22],20%
same,pest or weed control at 500 g/ha,"[12]; Postemergence, 0 to 100 scale, read-out: Plant response rating, Horseweed",40%
same,pest or weed control at 250 g/ha,[13],0%
same,plant injury at 250 g/ha,[14],0%
"Cc1cccc2c1O[C@@H](C)CN2C(=O)c1cccc(-n2cn[nH]c2=O)c1 [Compound 122, 4-[3-[[(2S)-2,3-Dihydro-2,8-dimethyl-4H-1,4-benzoxazin-4-yl]carbonyl]phenyl]-2,4-dihydro-3H-1,2,4-triazol-3-one]","Corn plant response rating (crop injury, 0 = no effect, 100 = complete kill) at 125 g/ha",[1]; [15],0%
same,"Corn plant response rating (crop injury, 0 = no effect, 100 = complete kill) at 500 g/ha",[1]; [15],10%
same,pest or weed control at 125 g/ha,[2]; [15],20%
same,pest or weed control at 500 g/ha,[2]; [15],90%
same,pest or weed control at 125 g/ha,[3]; [15],0%
same,pest or weed control at 500 g/ha,[3]; [15],20%
same,pest or weed control at 125 g/ha,[4]; [15],0%
same,pest or weed control at 500 g/ha,[4]; [15],30%
same,pest or weed control at 125 g/ha,[5]; [15],0%
same,pest or weed control at 500 g/ha,[5]; [15],0%
same,plant injury at 125 g/ha,[6]; [15],0%
same,plant injury at 500 g/ha,[6]; [15],0%
same,pest or weed control at 125 g/ha,"[7]; postemergence, 10 days, 0 to 100 scale (0 no effect, 100 complete control), read-out: Blackgrass plant response rating",0%
same,pest or weed control at 500 g/ha,[7]; [17],50%
same,pest or weed control at 125 g/ha,"[8]; postemergence, 10 days, 0 to 100 scale (0 no effect, 100 complete control), read-out: Kochia plant response rating",30%
same,pest or weed control at 500 g/ha,[8]; [18],50%
same,pest or weed control at 125 g/ha,"[9]; postemergence, 10 days, 0 to 100 scale (0 no effect, 100 complete control), read-out: Oat, Wild plant response rating",0%
same,pest or weed control at 500 g/ha,[9]; [19],20%
same,pest or weed control at 125 g/ha,"[10]; postemergence, 10 days, 0 to 100 scale (0 no effect, 100 complete control), read-out: Pigweed, Palmer plant response rating",20%
same,pest or weed control at 500 g/ha,[10]; [20],20%
same,plant injury at 125 g/ha,"[11]; postemergence, 10 days, 0 to 100 scale (0 no effect, 100 complete control), read-out: Wheat plant response rating",10%
same,plant injury at 500 g/ha,[11]; [21],10%
same,pest or weed control at 125 g/ha,"[12]; postemergence, 10 days, 0 to 100 scale (0 no effect, 100 complete control), read-out: Horseweed plant response rating",0%
same,pest or weed control at 500 g/ha,[12]; [22],0%
same,pest or weed control at 250 g/ha,[13],0%
same,plant injury at 250 g/ha,[14],0%
